Experimental data as given in patent US12004506B2, “Pharmaceutical composition comprising a cyclic peptide of formula X1-[sequence]-X2 and use for extracorporeal lung treatment” (priority 2013, dated 2024).

How the values were obtained:
[1] = system: sodium ion current in A549 cells (deglycosylated cell surface); assay: Patch clamp assay, whole cell mode, on A549 cells deglycosylated with PNGase F; format: cell-based, human; details: 240 nM peptide, Eh -100 mV
[2] = system: transplanted pig lung; assay: Re-implantation of pre-treated non-ischemic donor lungs in recipient pigs; format: in vivo; details: nebulisation 1 mg/kg, 24 h evaluation
Method: After the pre-treatment of the non-ischemic donor lungs with peptide SEQ ID NO:1 from Example 4 the lungs were re-implanted in recipient pigs. Shortly after reperfusion of the transplanted lungs peptide SEQ ID NO: 1 was administered.
A left thoracotomy through the sixth inter costal space was done, the left hilus was prepared. The hemiazygos vein on the left side was dissected and transected, as it is hiding both the left pulmonary artery and the left atrium. After dissection the ligated ends can be pulled to facilitate exposure of the OP field. The […] and bronchus are encircled. Left pneumonectomy was performed using vascular clamps. Immediately before the implantation single intravenous dose of methylprednisolone (500-1000 mg) and a low dose of heparin (100 IU/kg, see above) was applied. The donor lung was then reimplanted using 4-0 PDS for the bronchial anastomosis and 5-0 Prolene for the pulmonary artery and the left atrial anastomosis. In pigs, there is an additional lobe (caval lobe) of the right lung with 2 veins into the left atrium (1 separate vein for the caval lobe, 1 additional vein arising from the trunk of the main right lower lobe vein). […]
The left donor lung was evaluated for an additional period of 24 hours.
The following parameters have been assessed:
Functional assessment of graft function by oxygenation parameters: Arterial blood gas analyses as well as selective blood gas analysis from the left pulmonary veins were performed every 2 hours for 24 h. The respiratory index was calculated: RI=PaO2/FiO2.
Lung compliance was calculated from the pressure and volume data of the anesthesia ventilator. […]
Functional assessment of graft function by hemodynamic measurements (on-line measurements) and pulmonary vascular resistance (PVR): Hemodynamics, including pulmonary artery pressure (PAP) was measured continuously. Cardiac output (CO) was measured by using a Swan-Ganz catheter. Pulmonary vascular resistance is calculated by the following formula: PVR (dynes·[…]·cm−5)=(PAP−LAP)×80/CO.

[3] = Stability of aqueous solution of the cyclised compound; format: physicochemical
Excerpt: For administration by inhalation/spraying, e.g. in the form of an aerosol, either the aqueous solution from the first dissolution step, or the lyophilisates obtained, re-dissolved in water, is subjected to spraying (atomizing) to obtain an aerosol, e.g. by use of a nebulizer. […] The appropriate lower limit of the droplet size is dependent only from the feasibility of the droplets.

[4] = Particle size of aerosol droplets after nebulizing the aqueous solution; format: physicochemical
Method: With the aid of nebulizers the aqueous solution of a cyclised compound of formula I, namely that of the amino acid sequence SEQ ID NO: 1 was transferred into an aerosol. The particle size of the droplets was measured after subjecting the aqueous solution to 3 different nebulizers and is set out in Table II below: […]

[5] = laboratory syringe, 2 to 8° C., T = 0 and T = 7 days
[6] = storage tank of a nebulizer, 25° C., T = 0 and T = 24 hours

## C[C@@H]1NC(=O)CNC(=O)[C@H](CCC(=O)O)NC(=O)[C@@H]2CCCN2C(=O)[C@H]([C@@H](C)O)NC(=O)[C@H](CCC(=O)O)NC(=O)[C@H](CCCNC(=N)N)NC(=O)[C@H](CCC(N)=O)NC(=O)CNC(=O)[C@@H](N)CSSC[C@@H](C(=O)O)NC(=O)[C@H](Cc2ccc(O)cc2)NC(=O)[C@H](Cc2c[nH]c3ccccc23)NC(=O)[C@@H]2CCCN2C(=O)[C@H](CCCCN)NC(=O)[C@H](C)NC(=O)[C@H](CCC(=O)O)NC1=O [SEQ ID NO: 1]
[1]
  Whole cell current, no pre-treatment with PNGase F: 1073.3 ± 15.1 pA
[2]
  development of lung oedema: reduced
  initial graft function and gas exchange: improved
  rate of ischemia reperfusion injury induced malfunction of the transplanted lung: reduced
[3]; laboratory syringe, 2 to 8° C., T = 0
  Purity (stability): 96.3%
[3]; [5]
  Amount/Content: 25 mg/mL
  Appearance of aqueous solution: Clear solution
[3]; laboratory syringe, 2 to 8° C., T = 7 days
  Purity (stability): 96.2%
[3]; storage tank of a nebulizer, 25° C., T = 0
  Purity (stability): 96.6%
[3]; [6]
  Amount/Content: 25 mg/mL
  Appearance of aqueous solution: Clear solution
[3]; storage tank of a nebulizer, 25° C., T = 24 hours
  Purity (stability): 96.5%
[4]; nebulizer Type A
  Amount of particles with Ø ≤ 5 μm: 50%
  Median particle diameter: 4.7 μm
[4]; nebulizer Type B
  Amount of particles with Ø ≤ 5 μm: 70%
  Median particle diameter: 3.3 μm
[4]; nebulizer Type C
  Amount of particles with Ø ≤ 5 μm: 65%
  Median particle diameter: 3.7 μm
